PMC10703884, “Targeting the COMMD4–H2B protein complex in lung cancer” (British Journal of Cancer, 2023)
“Also recorded” adds a separate entry of the source. No end group written: not given here.

Legend:
NSCLC cells = assay: Mitotic catastrophe (emerin and phalloidin staining), NSCLC cells; format: cell-based; details: 100 cells counted
Description: (§1) For siRNA transfections, cells were transfected with negative control or COMMD4 siRNA #2 (CCAUGUCCCUCUCAGCAGA[dT][dT] MISSION® siRNA, Sigma-Aldrich) using RNAiMax (Life Technologies) as previously described and samples were analysed 48 to 72 h post-transfection. The H2B wild-type (FLAG-H2BWT) and mutant (FLAG-H2BMUT1) expression constructs were generated with the 10-amino acid peptide and the corresponding mutant cloned into the expression vector pCDNA3.1/(+)-N-DYK containing an N-terminal FLAG tag and a C-terminal nuclear localisation signal (AAKRVKLDS) (GenScript). […] Cells were mock-transfected, or transfected with FLAG-H2BWT/FLAG-H2BMUT1, or COMMD4-FLAG/A70K with FuGENE® HD (Promega) using the manufacturer’s protocol and analysed 24 h post-transfection.
(§2) NSCLC cells were grown in 96-well plates as above and stained with anti-emerin antibody and phalloidin. Mitotic catastrophe was scored as previous. A minimum of 100 cells for each experimental condition were assessed to determine the percentage of aberrant nuclei.
(§3) As previously determined, in this study, we used two markers to determine mitotic catastrophe: emerin staining of the nuclear envelope and phalloidin staining of the F-actin cytoskeleton. […] We subsequently measured apoptosis by staining for Annexin V and propidium iodide via flow cytometry in FLAG-H2B WT, FLAG-H2BMUT1 and mock-transfected control and NSCLC cells (Fig. 5c, d). […]

[1] = test system: H460, H1299 and CRL5889 NSCLC cells; assay: Annexin V-FITC / propidium iodide apoptosis, NSCLC cells; format: cell-based; details: flow cytometry, three independent experiments
Description: as §1
(§4) The Annexin V-FITC apoptosis kit (United Bioresearch, ALX-850-020-K101, Enzo Life Sciences, Farmingdale, NY, USA) was used to measure viable and apoptotic cells, as previously described. […] CytExpert 2.0 software was used for data acquisition and analysed using the FlowJo v10 software.
(§5) Fig. 5 Induction of mitotic catastrophe and apoptosis in NSCLC cells. a Emerin and phalloidin staining respectively in three NSCLC and control HBEC3-KT cells. […] Asterix (*) denotes *P < 0.05 and ** P < 0.005 from 100 cells counted. […] The live cells were stained with Annexin V-FITC and propidium iodide and analysed by flow cytometer. […]

HBEC3-KT cells [2] = assay: Mitotic catastrophe (emerin and phalloidin staining), HBEC3-KT cells; format: cell-based, Human; details: 100 cells counted
Description: as §1, §2, §3

COMMD4 = assay: FLAG pull-down in control and COMMD4 siRNA depleted cells; format: binding; details: overexpressed FLAG-H2B after control or COMMD4 siRNA
Description: (§6) For siRNA transfections, cells were transfected with negative control or COMMD4 siRNA #2 (CCAUGUCCCUCUCAGCAGA[dT][dT] MISSION® siRNA, Sigma-Aldrich) using RNAiMax (Life Technologies) as previously described and samples were analysed 48 to 72 h post-transfection. The H2B wild-type (FLAG-H2BWT) and mutant (FLAG-H2BMUT1) expression constructs were generated with the 10-amino acid peptide and the corresponding mutant cloned into the expression vector pCDNA3.1/(+)-N-DYK containing an N-terminal FLAG tag and a C-terminal nuclear localisation signal (AAKRVKLDS) (GenScript). A70K FLAG-COMMD4 expression construct was generated by mutating the corresponding COMMD4-FLAG construct to harbour an A70K mutation (GenScript). Cells were mock-transfected, or transfected with FLAG-H2BWT/FLAG-H2BMUT1, or COMMD4-FLAG/A70K with FuGENE® HD (Promega) using the manufacturer’s protocol and analysed 24 h post-transfection.
Co-immunoprecipitations were performed as previously summarised, using ice-cold NP40 buffer. Assays for co-immunoprecipitations were performed at 4 °C from HEK293T, transiently expressing the FLAG-H2B WT or MUT plasmid. Proteins were captured using anti-FLAG M2 Dynabeads (ThermoFisher) and washed three times in NP40 buffer prior to analysis.
To support predicted models, we next designed peptides to perform mapping. […]

HBEC3-KT cells [3] = assay: Annexin V-FITC / propidium iodide apoptosis, HBEC3-KT cells; format: cell-based, Human; details: flow cytometry, three independent experiments
Description: as §1, §4, §5

GST-COMMD4 = assay: FLAG immunoprecipitation, FLAG-H2B constructs with COMMD4; format: binding; details: FLAG-H2B immunoprecipitated from HEK293T cells, anti-FLAG M2 Dynabeads, 4 °C, immunoblot for GST-COMMD4 and FLAG
Description: as §6
Co-immunoprecipitations were performed as previously summarised, using ice-cold NP40 buffer. Assays for co-immunoprecipitations were performed at 4 °C from HEK293T, transiently expressing the FLAG-H2B WT or MUT plasmid. Proteins were captured using anti-FLAG M2 Dynabeads (ThermoFisher) and washed three times in NP40 buffer prior to analysis. […]

FLAG-H2BWT: 10-amino acid peptide cloned into expression vector containing an N-terminal FLAG tag and a C-terminal nuclear localisation signal ({FLAG}-SFVNDIFERIAAKRVKLDS)
aberrant nuclei / mitotic catastrophe (NSCLC cells): significantly more aberrant nuclei, indicative of mitotic catastrophe induction, relative to FLAG-H2BMUT1; also recorded: significantly more mitotic catastrophe than control cells
early and late apoptosis [1]: significantly increased early and late apoptosis compared to FLAG-H2BMUT1 and mock-transfected cells
aberrant nuclei / mitotic catastrophe (HBEC3-KT cells [2]): also underwent mitotic catastrophe, but to a lesser extent than the NSCLC cell lines
binding to COMMD4 in control or COMMD4 siRNA-depleted cells (COMMD4): binding to COMMD4 was only possible in control siRNA-depleted cells
induction of apoptosis (HBEC3-KT cells [3]): no significant induction of apoptosis
binding of overexpressed FLAG-H2B construct to COMMD4 (GST-COMMD4): interacted with COMMD4
